Where a name gives a salt, the structure may show the parent alone. Read-outs that look alike come from different tables or passages of the source.
Tests used:
SARS-COV-2 = assay: microbe, parasite or virus in culture; type: cell-based; parameters: SI (Selectivity Index, CC50/IC50): unit not given here; conditions: for SI (Selectivity Index, CC50/IC50): SARS-COV-2, values >50 assumed to be 50; for IC50: read-out: SARS-COV-2 inhibition (IC50)
in vitro = conditions: African green monkey
[1] = Severe acute respiratory syndrome coronavirus 2, Vero cells, 24 hours infection
[2] = Severe acute respiratory syndrome coronavirus 2, Vero, 24 h

Compound | SI (Selectivity Index, CC50/IC50) (SARS-COV-2) | IC50 (SARS-COV-2; [1]) | CC50 (in vitro) | IC50 (SARS-COV-2; [2])
COc1cc2cc3c(c(-c4cc5c(cc4OC(=O)C(C)C)OCO5)c2cc1OC)C(=O)OC3 [Example 275, 6-(6,7-dimethoxy-3-oxo-1,3-dihydronaphtho[2,3-c]furan-4-yl)benzo[d][1,3]dioxol-5-yl isobutrate] | 1.76 | 28.4 µM | > 50 µM | 
COc1cc2cc3c(c(-c4cnc(N)cn4)c2cc1OC)C(=O)OC3 [Example 30, 9-(5-aminopyrazin-2-yl)-6,7-dimethoxynaphtho[2,3-c]furan-1(3H)-one] | 1.00 | > 50 µM | > 50 µM | 
CCN(Cc1cccnc1)c1ccc(-c2c3c(cc4cc(OC)c(OC)cc24)COC3=O)cc1 [Example 254, 9-(4-(ethyl(pyridin-3-ylmethyl)amino)phenyl)-6,7-dimethoxynaphtho[2,3-c]furan-1(3H)-one] | 12.17 | 4.11 µM | > 50 µM | 
COc1cc2cc3c(c(-c4cncc(OCCN(C)C)c4)c2cc1OC)C(=O)OC3.Cl [Example 187, 9-(5-(2-(dimethylamino)ethoxy)pyridin-3-yl)-6,7-dimethoxynaphtho[2,3-c]furan-1(3H)-one] | 1.0 |  | > 50 µM | > 50 µM
COc1cc2cc3c(c(-c4cnc(N(CCO)CCO)nc4)c2cc1OC)C(=O)OC3.Cl [Example 85, 9-(2-(bis(2-hydroxyethyl)amino)pyrimidin-5-yl)-6,7-dimethoxynaphtho[2,3-c]furan-1(3H)-one hydrochloride] | 1.00 |  | > 50 µM | > 50 µM
COc1cc2cc3c(c(N4CCN(c5ncc(Br)cn5)CC4)c2cc1OC)C(=O)OC3 [Example 131, 9-(4-(5-bromopyrimidin-2-yl)piperazin-1-yl)-6,7-dimethoxynaphtho[2,3-c]furan-1(3H)-one] | 1.44 | 34.6 µM | > 50 µM | 
CCNc1cccc(-c2c3c(cc4cc(OC)c(OC)cc24)COC3=O)c1 [Example 258, 9-(3-(ethylamino)phenyl)-6,7-dimethoxynaphtho[2,3-c]furan-1(3H)-one] | 3.04 | 16.5 µM | > 50 µM | 
COc1cc2cc3c(c(-c4cnc(N(C)C5CCOCC5)nc4)c2cc1OC)C(=O)OC3 [Example 115, 6,7-dimethoxy-9-(2-(methyl(tetrahydro-2H-pyran-4-yl)amino)pyrimidin-5-yl)naphtho[2,3-c]furan-1(3H)-one] | 48.62 | 1.03 µM | > 50 µM | 
COc1cc2cc3c(c(-c4ccc(C(F)(F)F)c5cccnc45)c2cc1OC)C(=O)OC3 [Example 119, 6,7-dimethoxy-9-(5-(trifluoromethyl)quinolin-8-yl)naphtho[2,3-c]furan-1(3H)-one] | 11.45 | 4.36 µM | > 50 µM | 
COc1cc2cc3c(c(-c4cnc(N(C)C)nc4)c2cc1OC)C(=O)OC3 [Example 11, 9-(2-(dimethylamino)pyrimidin-5-yl)-6,7-dimethoxynaphtho[2,3-c]furan-1(3H)-one] | 309.03 | 0.16 µM | > 50 µM | 
COc1cc2cc3c(c(-c4ccc5c(O)ccnc5c4C)c2cc1OC)C(=O)OC3 [Example 154, 9-(4-hydroxy-8-methylquinolin-7-yl)-6,7-dimethoxynaphtho[2,3-c]furan-1(3H)-one] | 1.0 | > 50 µM | > 50 µM | 
COc1cc2cc3c(c(-c4ccc5nc(C)cc(O)c5c4)c2cc1OC)C(=O)OC3 [Example 147, 9-(4-hydroxy-2-methylquinolin-6-yl)-6,7-dimethoxynaphtho[2,3-c]furan-1(3H)-one] | 1.0 | > 50 µM | > 50 µM | 
COc1cc2c(OC)c3c(c(-c4ccc5c(c4)OCO5)c2cc1OC)COC3=O [Example 262, 4-(benzo[d][1,3]dioxol-5-yl)-6,7,9-trimethoxynaphtho[2,3-c]furan-1(3H)-one] | 5.40 |  | > 50 µM | 9.26 µM
COc1cc2cc3c(c(-c4cnc(N5CCCCC5CO)nc4)c2cc1OC)C(=O)OC3 (stereo not drawn) [Example 104, 9-(2-(2-(hydroxymethyl)piperidin-1-yl)pyrimidin-5-yl)-6,7-dimethoxynaphtho[2,3-c]furan-1(3H)-one hydrochloride] | 1.0 |  | > 50 µM | > 50 µM
COc1cc2cc3c(c(-c4ccc(N(C)C5CCCCC5)nc4)c2cc1OC)C(=O)OC3 [Example 175, 9-(6-(cyclohexyl(methyl)amino)pyridin-3-yl)-6,7-dimethoxynaphtho[2,3-c]furan-1(3H)-one] | 42.02 | 1.19 µM | > 50 µM | 
COc1cc2cc3c(c(-c4cc5c(cc4OC(C)=O)OCO5)c2cc1OC)C(=O)OC3 [Example 274, 6-(6,7-dimethoxy-3-oxo-1,3-dihydronaphtho[2,3-c]furan-4-yl)benzo[d][1,3]dioxol-5-yl acetate] | 19.61 | 2.55 µM | > 50 µM | 
CCN(c1ncc(-c2c3c(cc4cc(OC)c(OC)cc24)COC3=O)cn1)C1CCCCC1.Cl [Example 78, 9-(2-(cyclohexyl(ethyl)amino)pyrimidin-5-yl)-6,7-dimethoxynaphtho[2,3-c]furan-1(3H)-one hydrochloride] | 18.80 |  | > 50 µM | 2.66 µM
COc1ccc2c(-c3c4c(cc5cc(OC)c(OC)cc35)COC4=O)cc(C)nc2c1 [Example 141, 6,7-dimethoxy-9-(7-methoxy-2-methylquinolin-4-yl)naphtho[2,3-c]furan-1(3H)-one] | 2.07 | 24.2 µM | > 50 µM | 
CCN(CC1CCCO1)c1ccc(-c2c3c(cc4cc(OC)c(OC)cc24)COC3=O)cn1 (stereo not drawn) [Example 193, 9-(6-(ethyl((tetrahydrofuran-2-yl)methyl)amino)pyridin-3-yl)-6,7-dimethoxynaphtho[2,3-c]furan-1(3H)-one] | 6.46 | 7.74 µM | > 50 µM | 
COCCN(CCOC)c1ccc(-c2c3c(cc4cc(OC)c(OC)cc24)COC3=O)cn1 [Example 174, 9-(6-(bis(2-methoxyethyl)amino)pyridin-3-yl)-6,7-dimethoxynaphtho[2,3-c]furan-1(3H)-one] | 2.62 | 19.1 µM | > 50 µM | 
COc1cc2cc3c(c(-c4cnc(N(C)c5ccc(C)c(C)c5)nc4)c2cc1OC)C(=O)OC3 [Example 109, 9-(2-((3,4-dimethylphenyl)(methyl)amino)pyrimidin-5-yl)-6,7-dimethoxynaphtho[2,3-c]furan-1(3H)-one] | 18.73 | 2.67 µM | > 50 µM | 
COc1cc2cc3c(c(-c4ccc(N5CCOCC5)cc4)c2cc1OC)C(=O)OC3.Cl [Example 245, 6,7-dimethoxy-9-(4-morpholinophenyl)naphtho[2,3-c]furan-1(3H)-one] | 1.00 |  | > 50 µM | > 50 µM
COc1cc2cc3c(c(-c4cnc(/N=C\CN(C)C)cn4)c2cc1OC)C(=O)OC3 [Example 29, (Z)-9-(5-((2-(dimethylamino)ethyliden)amino)pyrazin-2-yl)-6,7-dimethoxynaphtho[2,3-c]furan-1(3H)-one] | 1.00 | > 50 µM | > 50 µM | 
COCCN(C)c1ccc(-c2c3c(c(OC)c4cc(OC)c(OC)cc24)C(=O)OC3)cn1.Cl [Example 265, 6,7,9-trimethoxy-4-(6-((2-methoxyethyl)(methyl)amino)pyridin-3-yl)naphtho[2,3-c]furan-1(3H)-one] | 1.51 |  | > 50 µM | 33 µM
COc1cc2cc3c(c(-c4ccc(N(C)CC(OC)OC)nc4)c2cc1OC)C(=O)OC3 [Example 162, 9-(6-((2,2-dimethoxyethyl)(methyl)amino)pyridin-3-yl)-6,7-dimethoxynaphtho[2,3-c]furan-1(3H)-one] | 11.63 | 4.3 µM | > 50 µM | 
COc1cc2cc3c(c(-c4ccc(C(=O)c5ccccc5)s4)c2cc1OC)C(=O)OC3 [Example 53] | 19.94 | 2.51 µM | > 50 µM | 
COc1cc2cc3c(c(-c4cnc(N(C)CCC5=CCCCC5)nc4)c2cc1OC)C(=O)OC3.Cl [Example 101, 9-(2-((2-(cyclohex-1-en-1-yl)ethyl)(methyl)amino)pyrimidin-5-yl)-6,7-dimethoxynaphtho[2,3-c]furan-1(3H)-one hydrochloride] | 13.00 |  | > 50 µM | 3.85 µM
COc1cc2cc3c(c(-c4ccc(N5CCOCC5)nn4)c2cc1OC)C(=O)OC3 [Example 219, 6,7-dimethoxy-9-(6-morpholinopyridazin-3-yl)naphtho[2,3-c]furan-1(3H)-one] | 1.00 | > 50 µM | > 50 µM | 
COc1cc2cc3c(c(N4CCNCC4)c2cc1OC)C(=O)OC3 [Example 128, 6,7-dimethoxy-9-(piperazin-1-yl)naphtho[2,3-c]furan-1(3H)-one] | 1.78 |  | > 50 µM | 28 µM
CC[C@H](C)[C@H](N)C(=O)Oc1cc2c(cc1-c1c3c(cc4cc(OC)c(OC)cc14)COC3=O)OCO2 [Example 270, 6-(6,7-dimethoxy-3-oxo-1,3-dihydronaphtho[2,3-c]furan-4-yl)benzo[d][1,3]dioxol-5-yl L-isoleucinate] | 122.64 |  | > 50 µM | 0.41 µM

Source: patent US20240368104A1, “Novel Dialkoxynaphtho[2,3-C]Furan-1(3H)-One Derivatives and Pharmaceutical Composition For Preventing or Treating Respiratory Disease or SARS-COV-2 Infection Disease, Comprising Same” (priority 2021, published 2024)
